Laboratory results as given in US7438931B2, “Methods and compositions for the treatment of angiogenic diseases” (The Regents of The University of Michigan, priority 1998, dated 2008).

What was measured:
[1] = cited from earlier work
copper [2] = details: at a cupruresis of 2-3 mg
copper [3] = details: cited from earlier work
[4] = human, in vivo; cited from earlier work
[5] = system: rabbit VX2 carcinoma and rat 9L gliosarcoma; details: implanted intracerebral tumors; cited from earlier work
copper absorption = details: cited from earlier work
[6] = therapeutic dose 1,000-2,000 mg/day

SMILES: [Mo] [Mo, molybdenum]
- efficacy ([1]; 5-20 mg/kg/day of Mo for 4-11 months): not effective
- toxicity ([1]; 350 to 1400 mg/day (5-20 mg/kg/day) of Mo for 4-11 months): without known toxicity

SMILES: NCCNCCNCCN [trientine]
- negative copper balance (copper [2]): 1.5 to 2.5 mg/day
- patients with proteinuria (copper [3]; after several weeks of use): about 20 % of patients
- cupruresis after the first few weeks of therapy (copper [3]; [6]): 2 to 3 mg
- cupruresis, initial (copper [3]; [6]): 4 to 5 mg

SMILES: CC(C)(S)[C@@H](N)C(=O)O [penicillamine]
- patients developing an initial hypersensitivity syndrome [4]: a quarter to a third of patients
- survival [5]: did not show improved survival over untreated controls

SMILES: [Zn] [zinc]
- toxicity (copper absorption; 150 mg daily, 200 Wilson's disease patients): no toxicity at all
- copper balance, average (copper absorption; at the two week point): −0.35 mg daily
- time to bring urine copper and nonceruloplasmin plasma copper down to subtoxic levels (copper absorption; human, in vivo): as long as six months
- time to intestinal metallothionein induction and a negative copper balance (copper absorption; human, in vivo): approximately two weeks
